Data: article PMC4965148 (PLoS ONE, 2016)
Read-outs that look alike come from different tables or passages of the source.

Key:
[1] = system: MK-801 treated mice; assay: Mouse MK-801 two trial Y maze; format: in vivo
Description: Testing was conducted in a grey polyethylene plastic Y maze that had 3 arms, 2 of 40 cm length (test arms) and 1 of 20 cm length (start arm). Each arm had distinct optical cues covering the walls and a removable partition to occlude the arm as needed. The test consisted of a forced choice trial followed by a free-choice trial. For the forced choice trial the start arm and one test arm was open with access to the 2nd test arm blocked by the partition. Individual subjects were placed in the start arm and allowed to explore the open test arm for 8 min after which they were removed from the maze, placed in a holding cage and the maze was cleaned. Animals were then immediately placed back on the Y maze for the free choice trial and allowed to explore both open test arms for 4 min. The protocol was thus designed for minimal delay between the forced choice and free choice trials. […] For each subject the % time exploring the novel arm during the free choice trial was calculated using the formula: % novel time = novel time/(novel + familiar time) x 100.

[2] = system: S(+)ketamine treated rats; assay: Rat S(+)ketamine N40 gating
[3] = biological target: Estrogen receptor alpha (Homo sapiens, UniProt P03372); assay: Selectivity panel, binding
[4] = biological target: T1, rat α3β4 nAChR (Rattus norvegicus, UniProt P04757+P12392); assay: Ca2+ flux (FLIPR) agonist/antagonist assay; format: cell-based; conditions: FLIPR antagonist mode, EC90 ACh
T1 construct: expressed in transfected cells; host or cells: HEK293 (made by Bristol-Myers Squibb)

[5] = Plasma and brain concentrations after dosing; format: in vivo, rat; conditions: for concentration at 30 min / Kp at 30 min: sc
Description: At specified time points after dosing, the forebrain (for occupancy), the remaining hindbrain (for brain drug exposure) and plasma were collected, frozen in chilled isopentane and stored at -80°C until assayed.
In brief, 50 μL of the plasma sample was extracted by protein precipitation with 150 μL acetonitrile containing an internal standard and 5 μL of supernatant injected into the LC-MS/MS system. Analytes were separated by reversed phase chromatography and detection of each analyte was achieved through selected reaction monitoring mode of mass spectrometry.

[6] = biological target: Adenosine A2a (Homo sapiens, UniProt P29274); assay: Selectivity panel, binding
[7] = biological target: Dopamine transporter (Homo sapiens, UniProt Q01959); assay: Selectivity panel, binding
[8] = biological target: Muscarinic M5 (Homo sapiens, UniProt P08912); assay: Selectivity panel, binding; conditions: read-out: % inhibition @ 10 µM
[9] = biological target: Dopamine D1 (Homo sapiens, UniProt P21728); assay: Selectivity panel, binding
[10] = biological target: Norepinephrine transporter (Homo sapiens, UniProt P23975); assay: Selectivity panel, binding
[11] = biological target: Adrenergic α1B (Homo sapiens, UniProt P35368); assay: Selectivity panel, binding
Adrenergic α1B, sequence (P35368 whole entry): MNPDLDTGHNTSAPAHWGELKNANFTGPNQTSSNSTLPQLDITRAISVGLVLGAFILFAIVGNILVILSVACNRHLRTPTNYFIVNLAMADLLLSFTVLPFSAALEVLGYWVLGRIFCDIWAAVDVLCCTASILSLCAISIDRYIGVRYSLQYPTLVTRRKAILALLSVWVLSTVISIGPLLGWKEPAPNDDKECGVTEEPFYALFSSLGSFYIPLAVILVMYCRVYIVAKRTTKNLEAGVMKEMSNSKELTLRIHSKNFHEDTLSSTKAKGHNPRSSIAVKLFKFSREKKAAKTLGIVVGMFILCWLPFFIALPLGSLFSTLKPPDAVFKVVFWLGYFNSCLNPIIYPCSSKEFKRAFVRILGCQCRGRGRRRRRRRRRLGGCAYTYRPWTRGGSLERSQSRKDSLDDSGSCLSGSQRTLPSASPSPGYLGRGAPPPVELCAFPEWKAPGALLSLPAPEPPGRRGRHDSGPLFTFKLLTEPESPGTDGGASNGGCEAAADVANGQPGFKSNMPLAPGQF

Estrogen receptor alpha, sequence (P03372 whole entry): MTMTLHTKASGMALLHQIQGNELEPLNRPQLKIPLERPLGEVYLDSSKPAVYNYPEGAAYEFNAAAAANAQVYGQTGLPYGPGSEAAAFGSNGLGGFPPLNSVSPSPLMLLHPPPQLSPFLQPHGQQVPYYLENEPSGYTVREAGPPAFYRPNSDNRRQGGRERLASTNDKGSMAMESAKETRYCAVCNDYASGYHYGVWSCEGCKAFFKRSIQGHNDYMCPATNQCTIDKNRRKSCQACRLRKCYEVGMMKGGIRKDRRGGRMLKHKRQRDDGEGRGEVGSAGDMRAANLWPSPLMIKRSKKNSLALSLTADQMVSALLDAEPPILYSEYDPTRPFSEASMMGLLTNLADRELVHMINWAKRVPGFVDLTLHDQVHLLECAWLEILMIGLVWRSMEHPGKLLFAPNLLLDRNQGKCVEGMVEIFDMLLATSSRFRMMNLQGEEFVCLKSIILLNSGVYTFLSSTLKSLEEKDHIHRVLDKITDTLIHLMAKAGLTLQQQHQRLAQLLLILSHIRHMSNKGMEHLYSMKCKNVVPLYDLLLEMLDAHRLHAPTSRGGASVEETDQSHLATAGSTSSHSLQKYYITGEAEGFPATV
Adenosine A2a, sequence (P29274 whole entry): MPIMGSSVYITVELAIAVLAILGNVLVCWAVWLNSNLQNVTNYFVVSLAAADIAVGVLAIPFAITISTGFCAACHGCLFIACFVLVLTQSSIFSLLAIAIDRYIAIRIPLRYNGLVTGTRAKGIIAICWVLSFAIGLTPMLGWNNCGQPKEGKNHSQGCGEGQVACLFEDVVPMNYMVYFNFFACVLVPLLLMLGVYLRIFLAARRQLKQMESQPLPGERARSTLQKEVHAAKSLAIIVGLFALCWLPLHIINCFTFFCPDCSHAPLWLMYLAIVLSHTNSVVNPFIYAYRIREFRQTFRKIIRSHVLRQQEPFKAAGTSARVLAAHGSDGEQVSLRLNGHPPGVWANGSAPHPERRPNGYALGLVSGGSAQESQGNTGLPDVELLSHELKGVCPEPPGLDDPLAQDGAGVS
Dopamine transporter, sequence (Q01959 whole entry): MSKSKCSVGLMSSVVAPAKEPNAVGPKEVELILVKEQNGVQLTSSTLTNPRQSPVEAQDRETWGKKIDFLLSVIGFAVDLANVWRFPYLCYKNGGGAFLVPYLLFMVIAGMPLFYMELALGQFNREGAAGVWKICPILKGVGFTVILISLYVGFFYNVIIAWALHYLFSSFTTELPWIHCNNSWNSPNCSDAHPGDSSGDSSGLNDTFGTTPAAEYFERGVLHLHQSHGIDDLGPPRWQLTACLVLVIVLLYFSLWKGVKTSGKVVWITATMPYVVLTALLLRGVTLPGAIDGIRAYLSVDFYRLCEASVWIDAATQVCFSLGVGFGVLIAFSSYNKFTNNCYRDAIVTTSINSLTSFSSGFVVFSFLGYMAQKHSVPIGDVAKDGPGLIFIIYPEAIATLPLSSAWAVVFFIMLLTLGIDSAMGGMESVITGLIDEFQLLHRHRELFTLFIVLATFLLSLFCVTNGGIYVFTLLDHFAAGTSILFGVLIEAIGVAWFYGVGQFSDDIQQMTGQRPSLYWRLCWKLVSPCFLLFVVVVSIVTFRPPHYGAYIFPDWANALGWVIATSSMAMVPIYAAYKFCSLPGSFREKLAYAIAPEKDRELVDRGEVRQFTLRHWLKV
Dopamine D1, sequence (P21728 whole entry): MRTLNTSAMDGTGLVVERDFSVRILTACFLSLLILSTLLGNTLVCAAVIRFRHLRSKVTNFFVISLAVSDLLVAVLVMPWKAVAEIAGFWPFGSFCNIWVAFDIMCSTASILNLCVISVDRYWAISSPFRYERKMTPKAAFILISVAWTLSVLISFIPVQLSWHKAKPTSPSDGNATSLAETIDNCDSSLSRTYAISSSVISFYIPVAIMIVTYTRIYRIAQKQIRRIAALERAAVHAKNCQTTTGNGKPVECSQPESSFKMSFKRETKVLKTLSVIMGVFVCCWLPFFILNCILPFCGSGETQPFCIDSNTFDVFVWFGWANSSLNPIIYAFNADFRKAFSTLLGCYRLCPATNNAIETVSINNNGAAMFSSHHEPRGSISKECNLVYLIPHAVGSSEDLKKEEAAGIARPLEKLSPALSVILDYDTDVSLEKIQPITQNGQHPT
T1 sequence (P04757 26-499): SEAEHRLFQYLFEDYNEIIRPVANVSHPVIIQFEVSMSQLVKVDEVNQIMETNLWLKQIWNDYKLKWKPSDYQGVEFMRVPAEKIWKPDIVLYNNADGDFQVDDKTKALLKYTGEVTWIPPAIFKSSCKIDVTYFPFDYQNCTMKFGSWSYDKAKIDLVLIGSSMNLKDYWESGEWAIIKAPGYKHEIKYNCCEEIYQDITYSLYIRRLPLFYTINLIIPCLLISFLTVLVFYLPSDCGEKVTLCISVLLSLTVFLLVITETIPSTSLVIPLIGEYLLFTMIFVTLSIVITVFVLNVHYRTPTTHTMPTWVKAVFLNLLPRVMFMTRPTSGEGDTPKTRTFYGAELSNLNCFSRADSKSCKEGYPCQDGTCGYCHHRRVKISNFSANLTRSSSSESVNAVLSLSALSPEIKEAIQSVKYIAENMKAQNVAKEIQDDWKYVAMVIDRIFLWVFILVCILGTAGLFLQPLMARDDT
T1 sequence (P12392 21-495): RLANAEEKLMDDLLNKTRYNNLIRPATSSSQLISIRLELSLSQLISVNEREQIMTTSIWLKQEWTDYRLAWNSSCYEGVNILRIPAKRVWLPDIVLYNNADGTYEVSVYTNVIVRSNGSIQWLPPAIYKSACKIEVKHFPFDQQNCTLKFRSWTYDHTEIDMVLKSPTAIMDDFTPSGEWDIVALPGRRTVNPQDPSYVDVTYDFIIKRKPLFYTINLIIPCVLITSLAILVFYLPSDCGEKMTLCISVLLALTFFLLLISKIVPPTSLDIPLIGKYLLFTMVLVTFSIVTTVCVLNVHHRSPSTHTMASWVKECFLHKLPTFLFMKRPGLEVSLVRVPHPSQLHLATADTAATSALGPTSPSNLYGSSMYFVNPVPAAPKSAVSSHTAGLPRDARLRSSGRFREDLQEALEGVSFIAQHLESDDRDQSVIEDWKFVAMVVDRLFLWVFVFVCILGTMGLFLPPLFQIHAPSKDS
Norepinephrine transporter, sequence (P23975 whole entry): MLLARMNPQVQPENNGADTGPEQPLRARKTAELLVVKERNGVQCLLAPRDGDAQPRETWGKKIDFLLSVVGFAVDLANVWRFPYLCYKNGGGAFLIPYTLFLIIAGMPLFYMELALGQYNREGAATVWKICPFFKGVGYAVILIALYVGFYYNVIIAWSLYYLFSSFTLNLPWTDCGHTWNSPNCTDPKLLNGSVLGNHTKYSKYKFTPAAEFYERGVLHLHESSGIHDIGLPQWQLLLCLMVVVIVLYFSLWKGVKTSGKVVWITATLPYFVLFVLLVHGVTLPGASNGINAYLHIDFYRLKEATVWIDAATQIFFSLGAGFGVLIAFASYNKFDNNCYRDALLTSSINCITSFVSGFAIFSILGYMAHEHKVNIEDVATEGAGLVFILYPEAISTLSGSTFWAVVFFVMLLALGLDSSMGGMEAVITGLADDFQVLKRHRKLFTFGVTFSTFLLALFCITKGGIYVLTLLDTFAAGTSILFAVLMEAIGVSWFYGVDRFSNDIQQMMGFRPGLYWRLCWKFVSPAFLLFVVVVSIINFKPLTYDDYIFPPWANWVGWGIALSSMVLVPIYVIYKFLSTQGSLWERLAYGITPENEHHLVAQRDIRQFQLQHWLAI
Muscarinic M5, sequence (P08912 whole entry): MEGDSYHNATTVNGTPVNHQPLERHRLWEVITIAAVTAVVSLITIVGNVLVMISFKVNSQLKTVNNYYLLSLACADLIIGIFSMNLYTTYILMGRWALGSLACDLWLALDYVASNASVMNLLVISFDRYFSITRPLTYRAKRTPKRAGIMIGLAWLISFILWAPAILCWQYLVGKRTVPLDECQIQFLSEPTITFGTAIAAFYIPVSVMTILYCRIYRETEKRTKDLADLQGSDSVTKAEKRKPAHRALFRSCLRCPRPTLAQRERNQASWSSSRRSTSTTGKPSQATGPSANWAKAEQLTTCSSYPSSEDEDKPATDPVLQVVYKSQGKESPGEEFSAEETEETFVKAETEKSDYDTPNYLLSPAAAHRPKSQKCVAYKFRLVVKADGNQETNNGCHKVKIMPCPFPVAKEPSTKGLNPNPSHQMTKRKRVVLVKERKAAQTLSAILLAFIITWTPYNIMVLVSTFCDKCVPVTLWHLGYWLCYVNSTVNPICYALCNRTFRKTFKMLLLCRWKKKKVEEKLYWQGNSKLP

c1cn(-c2cc(NC3=NC[C@@]4(CN5CCC4CC5)O3)ncn2)cn1 [BMS-933043, (2R)-N-(6-(1H-imidazol-1-yl)-4-pyrimidinyl)-4'H-spiro[4-azabicyclo[2.2.2]octane-2,5'-[1,3]oxazol]-2'-amine]
time spent in the novel arm in MK-801-treated mice ([1]; doses of 1, 3 and 10 mg/kg sc): significantly increased time spent in the novel arm
Active dose range, MK-801 Y maze ([1]; sc): 1–10 (sc) mg/kg
deficit in N40 gating following S(+)ketamine ([2]; 0.3 and 10 mg/kg sc): neither the lowest dose (0.3 mg/kg; data not shown) nor the highest dose (10 mg/kg) tested were significantly different
deficit in N40 gating following S(+)ketamine ([2]; 0.56, 1 and 3 mg/kg sc): significant reduction
Active dose range, S(+)Ketamine N40 gating ([2]; sc): 0.56–3.0 (sc) mg/kg
IC50 [3]: > 150 µM
IC50 [4]: > 30 µM
Brain Mean ± SD ([5]; Rat MK-801 Set Shift (0.3-3 mg/kg study), 0.30 mg/kg po, 150 min): < LLQ
concentration at 150 min ([5]; rat, brain, oral, 1 mg/kg, Rat MK-801 Set Shift (0.3-3 mg/kg study), 1 mg/kg po, 150 min, read-out: Brain Mean ± SD): 13 ± 3 nM
concentration at 150 min ([5]; rat, brain, oral, 3 mg/kg, Rat MK-801 Set Shift (0.3-3 mg/kg study), 3 mg/kg po, 150 min, read-out: Brain Mean ± SD): 100 ± 39 nM
concentration at 150 min ([5]; rat, brain, oral, 3 mg/kg, Rat MK-801 Set Shift (3-30 mg/kg study), 3 mg/kg po, 150 min, read-out: Brain Mean ± SD): 132 ± 17 nM
concentration at 150 min ([5]; rat, brain, oral, 10 mg/kg, Rat MK-801 Set Shift (3-30 mg/kg study), 10 mg/kg po, 150 min, read-out: Brain Mean ± SD): 533 ± 111 nM
concentration at 150 min ([5]; rat, brain, oral, 30 mg/kg, Rat MK-801 Set Shift (3-30 mg/kg study), 30 mg/kg po, 150 min, read-out: Brain Mean ± SD): 2220 nM
concentration at 30 min ([5]; rat, brain, 0.03 mg/kg, Rat MMN, 0.03 mg/kg sc, 30 min, read-out: Brain Mean ± SD): 13 nM
concentration at 30 min ([5]; rat, brain, 0.3 mg/kg, Rat MMN, 0.30 mg/kg sc, 30 min, read-out: Brain Mean ± SD): 13 ± 0.65 nM
concentration at 30 min ([5]; rat, brain, 0.3 mg/kg, Rat N40 Gating, 0.30 mg/kg sc, 30 min, read-out: Brain Mean ± SD): 21 ± 6 nM
concentration at 30 min ([5]; rat, brain, 0.56 mg/kg, Rat N40 Gating, 0.56 mg/kg sc, 30 min, read-out: Brain Mean ± SD): 42 ± 10 nM
concentration at 30 min ([5]; rat, brain, 1 mg/kg, Rat MMN, 1 mg/kg sc, 30 min, read-out: Brain Mean ± SD): 74 ± 18 nM
concentration at 30 min ([5]; rat, brain, 1 mg/kg, Rat N40 Gating, 1 mg/kg sc, 30 min, read-out: Brain Mean ± SD): 97 ± 14 nM
concentration at 30 min ([5]; rat, brain, 3 mg/kg, Rat MMN, 3 mg/kg sc, 30 min, read-out: Brain Mean ± SD): 378 ± 161 nM
concentration at 30 min ([5]; rat, brain, 3 mg/kg, Rat N40 Gating, 3 mg/kg sc, 30 min, read-out: Brain Mean ± SD): 372 ± 33 nM
Kp at 150 min ([5]; rat, brain/plasma, oral, 1 mg/kg, Rat MK-801 Set Shift (0.3-3 mg/kg study), 1 mg/kg po, 150 min): 0.25
Kp at 150 min ([5]; rat, brain/plasma, oral, 3 mg/kg, Rat MK-801 Set Shift (0.3-3 mg/kg study), 3 mg/kg po, 150 min): 0.24
Kp at 150 min ([5]; rat, brain/plasma, oral, 3 mg/kg, Rat MK-801 Set Shift (3-30 mg/kg study), 3 mg/kg po, 150 min): 0.29
Kp at 150 min ([5]; rat, brain/plasma, oral, 10 mg/kg, Rat MK-801 Set Shift (3-30 mg/kg study), 10 mg/kg po, 150 min): 0.29
Kp at 150 min ([5]; rat, brain/plasma, oral, 30 mg/kg, Rat MK-801 Set Shift (3-30 mg/kg study), 30 mg/kg po, 150 min): 0.31
Kp ([5]; rat, brain/plasma, other: subcutaneous or oral (pooled over all rat studies), rats): 0.28
Kp at 30 min ([5]; rat, brain/plasma, 0.03 mg/kg, Rat MMN, 0.03 mg/kg sc, 30 min): 0.57
Kp at 30 min ([5]; rat, brain/plasma, 0.3 mg/kg, Rat MMN, 0.30 mg/kg sc, 30 min): 0.17
Kp at 30 min ([5]; rat, brain/plasma, 0.3 mg/kg, Rat N40 Gating, 0.30 mg/kg sc, 30 min): 0.26
Kp at 30 min ([5]; rat, brain/plasma, 0.56 mg/kg, Rat N40 Gating, 0.56 mg/kg sc, 30 min): 0.3
Kp at 30 min ([5]; rat, brain/plasma, 1 mg/kg, Rat MMN, 1 mg/kg sc, 30 min): 0.19
Kp at 30 min ([5]; rat, brain/plasma, 1 mg/kg, Rat N40 Gating, 1 mg/kg sc, 30 min): 0.33
Kp at 30 min ([5]; rat, brain/plasma, 3 mg/kg, Rat MMN, 3 mg/kg sc, 30 min): 0.19
Kp at 30 min ([5]; rat, brain/plasma, 3 mg/kg, Rat N40 Gating, 3 mg/kg sc, 30 min): 0.27
concentration at 150 min ([5]; rat, plasma, oral, 0.3 mg/kg, Rat MK-801 Set Shift (0.3-3 mg/kg study), 0.30 mg/kg po, 150 min, read-out: Plasma Mean ± SD): 5.7 ± 0.9 nM
concentration at 150 min ([5]; rat, plasma, oral, 1 mg/kg, Rat MK-801 Set Shift (0.3-3 mg/kg study), 1 mg/kg po, 150 min, read-out: Plasma Mean ± SD): 50 ± 7.4 nM
concentration at 150 min ([5]; rat, plasma, oral, 3 mg/kg, Rat MK-801 Set Shift (0.3-3 mg/kg study), 3 mg/kg po, 150 min, read-out: Plasma Mean ± SD): 410 ± 97 nM
concentration at 150 min ([5]; rat, plasma, oral, 3 mg/kg, Rat MK-801 Set Shift (3-30 mg/kg study), 3 mg/kg po, 150 min, read-out: Plasma Mean ± SD): 452 ± 60 nM
concentration at 150 min ([5]; rat, plasma, oral, 10 mg/kg, Rat MK-801 Set Shift (3-30 mg/kg study), 10 mg/kg po, 150 min, read-out: Plasma Mean ± SD): 1860 nM
concentration at 150 min ([5]; rat, plasma, oral, 30 mg/kg, Rat MK-801 Set Shift (3-30 mg/kg study), 30 mg/kg po, 150 min, read-out: Plasma Mean ± SD): 7260 nM
concentration at 150 min ([5]; rat, plasma, po, 1 mg/kg, Rat Neonatal PCP ID/ED, 1 mg/kg po, 150 min, read-out: Plasma Mean ± SD): 21 ± 9 nM
concentration at 150 min ([5]; rat, plasma, po, 3 mg/kg, Rat Neonatal PCP ID/ED, 3 mg/kg po, 150 min, read-out: Plasma Mean ± SD): 225 ± 50 nM
concentration at 30 min ([5]; rat, plasma, 0.01 mg/kg, Rat MMN, 0.01 mg/kg sc, 30 min, read-out: Plasma Mean ± SD): 2.4 ± 0.1 nM
concentration at 30 min ([5]; rat, plasma, 0.03 mg/kg, Rat MMN, 0.03 mg/kg sc, 30 min, read-out: Plasma Mean ± SD): 23 ± 29 nM
concentration at 30 min ([5]; rat, plasma, 0.1 mg/kg, Rat MMN, 0.10 mg/kg sc, 30 min, read-out: Plasma Mean ± SD): 24 ± 0.6 nM
concentration at 30 min ([5]; rat, plasma, 0.3 mg/kg, Rat MMN, 0.30 mg/kg sc, 30 min, read-out: Plasma Mean ± SD): 75 ± 6 nM
concentration at 30 min ([5]; rat, plasma, 0.3 mg/kg, Rat N40 Gating, 0.30 mg/kg sc, 30 min, read-out: Plasma Mean ± SD): 81 ± 8 nM
concentration at 30 min ([5]; rat, plasma, 0.56 mg/kg, Rat N40 Gating, 0.56 mg/kg sc, 30 min, read-out: Plasma Mean ± SD): 146 ± 12 nM
concentration at 30 min ([5]; rat, plasma, 1 mg/kg, Rat MMN, 1 mg/kg sc, 30 min, read-out: Plasma Mean ± SD): 398 ± 139 nM
concentration at 30 min ([5]; rat, plasma, 1 mg/kg, Rat N40 Gating, 1 mg/kg sc, 30 min, read-out: Plasma Mean ± SD): 295 ± 27 nM
concentration at 30 min ([5]; rat, plasma, 3 mg/kg, Rat MMN, 3 mg/kg sc, 30 min, read-out: Plasma Mean ± SD): 1970 nM
concentration at 30 min ([5]; rat, plasma, 3 mg/kg, Rat N40 Gating, 3 mg/kg sc, 30 min, read-out: Plasma Mean ± SD): 1360 nM
concentration at 30 min ([5]; rat, plasma, subcutaneous, 10 mg/kg, N40 gating, read-out: average plasma concentration at dose with loss of efficacy): 3310 nM
IC50 [6]: > 30 µM
IC50 [7]: > 30 µM
inhibition at 10 µM [8]: 8%
IC50 [9]: > 30 µM
IC50 [10]: > 30 µM
IC50 [11]: > 30 µM
